Measurements: patent US20040076974A1, “Liver necrosis predictive genes” (priority 2002, published 2004)
“And” between values parts separate entries of the source, which are not always exact repeats. Equal values may be shown once. Read-outs that look alike come from different tables or passages of the source.

Assays:
Sprague Dawley rats = details: rat
Method in brief: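 Toxicity calls (necrosis present or absent at 72 h) and histopathology scores were correlated with tissue gene expression from Crl:CD Sprague Dawley rats. Animals, usually 3 treated with compound by i.p. route and 3 given vehicle, were killed at 6, 24 or 72 h and tissues frozen immediately in liquid nitrogen.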

[1] = test system: toxicologically relevant rat genes (rat CT array)
[2] = 24 h, dose 20, ratio treatment/control
[3] = 24 h, dose 20, ratio treatment/control, listed as PHEN

C[C@@H]1C[C@H]2[C@@H]3CCC4=CC(=O)C=C[C@]4(C)[C@@]3(F)[C@@H](O)C[C@]2(C)[C@@]1(O)C(=O)CO [dexamethasone]
Score (histopathology liver necrosis severity score) (Sprague Dawley rats; Sprague Dawley, in vivo, ip, 8 mg/kg, 72 h): 1
Score (histopathology liver necrosis severity score) (Sprague Dawley rats; Sprague Dawley, in vivo, ip, 30 mg/kg, 72 h): 1
Liver Toxicity Necrosis Classification (Sprague Dawley rats; in vivo): no
Liver Necrosis (Sprague Dawley rats; in vivo, ip, 8 mg/kg): no
Liver Necrosis (Sprague Dawley rats; in vivo, ip, 30 mg/kg): no
60S ribosomal protein L6 expression ([1]; rat, in vivo): 0.8901 and 1.098 (2×) and 0.9353
Adenine nucleotide translocator 1 expression ([1]; rat, in vivo): 0.9053 and 1.087 and 0.9653 and 0.9797
Alpha-2-macroglobulin, sequence 2 expression ([1]; rat, in vivo): 0.8488 and 1.069 and 0.9789 and 0.9595
Alpha-2-microglobulin expression ([1]; rat, in vivo): 0.9657 and 0.9413
Alpha-tubulin expression ([1]; rat, in vivo): 0.8272 and 1.251 and 0.9313 and 1.093
Apolipoprotein All expression ([1]; rat, in vivo): 0.7858 and 0.4198 and 0.803 and 0.4911
Beta-tubulin, class I expression ([1]; rat, in vivo): 0.8776 and 1.559 and 0.9809 and 1.151
Calpactin I heavy chain expression ([1]; rat, in vivo): 1.271 and 1.029
Cofilin expression ([1]; rat, in vivo): 1.006 and 0.9999
Collagen type II expression ([1]; rat, in vivo): 0.9739 and 1.08 and 1.31
Cystatin C expression ([1]; rat, in vivo): 0.8226 and 0.8364 and 1.078
Cytochrome P450 2C11 expression ([1]; rat, in vivo): 1.275
Dynamin-1 (D100) expression ([1]; rat, in vivo): 1.017 and 1.094 and 0.908 and 0.9644
Elongation factor-1 alpha expression ([1]; rat, in vivo): 0.8912 and 1.18 and 1.019
F1-ATPase beta subunit expression ([1]; rat, in vivo): 0.9797 and 1.576 and 1.032 and 1.236
Gamma-actin, cytoplasmic expression ([1]; rat, in vivo): 0.9178 and 0.883 and 0.9507
Glutathione S-transferase theta-1 expression ([1]; rat, in vivo): 0.9901 and 0.9291 and 0.9991 and 0.8886
Glycine methyltransferase expression ([1]; rat, in vivo): 1.124 and 1.982 and 1.013 and 1.714
Heme oxygenase expression ([1]; rat, in vivo): 0.8094 and 0.8311 and 0.7467
High affinity IgE receptor gamma chain (FcERIgamma) expression ([1]; rat, in vivo): 0.9808 and 0.8055 and 0.8812 and 0.8054
IgE binding protein expression ([1]; rat, in vivo): 1.039 and 0.992 and 1.096
Insulin-like growth factor I, exon 6 expression ([1]; rat, in vivo): 0.8498 and 0.631 and 1.058 and 0.6827
Melanoma-associated antigen ME491 expression ([1]; rat, in vivo): 1.042 and 1.057 and 0.9592 and 0.993
NADP-dependent isocitrate dehydrogenase, cytosolic expression ([1]; rat, in vivo): 0.9222 and 0.7332 and 0.8853 and 0.7428
NIPK expression ([1]; rat, in vivo): 0.9259 and 0.8897 and 0.7728
Osteoactivin expression ([1]; rat, in vivo): 0.8926 and 1.029 and 0.8681
Phase-1 RCT-39 expression ([1]; rat, in vivo): 0.9168
Phase-1 RCT-57 expression ([1]; rat, in vivo): 0.9696
Phase-1 RCT-78 expression ([1]; rat, in vivo): 0.8839
Phase-1 RCT-81 expression ([1]; rat, in vivo): 0.9341
Phase-1 RCT-107 expression ([1]; rat, in vivo): 1.099 and 1.846 and 1.664
Phase-1 RCT-138 expression ([1]; rat, in vivo): 0.9192 and 0.9399 and 0.9819
Phase-1 RCT-146 expression ([1]; rat, in vivo): 0.9664
Phase-1 RCT-149 expression ([1]; rat, in vivo): 0.7735
Phase-1 RCT-164 expression ([1]; rat, in vivo): 0.8597 and 0.7256 and 0.7203
Phase-1 RCT-179 expression ([1]; rat, in vivo): 0.9599 and 0.8496
Phase-1 RCT-192 expression ([1]; rat, in vivo): 0.9855
Phase-1 RCT-295 expression ([1]; rat, in vivo): 0.9503
Stathmin expression ([1]; rat, in vivo): 1.058 and 1.063
Uncoupling protein 2 expression ([1]; rat, in vivo): 0.8754 and 1.097 and 0.9302
alpha-1,2-fucosyltrans-ferase expression ([1]; rat, in vivo): 0.8942 and 0.8707 and 0.7596

NNc1ccccc1 [phenylhydrazine]
Liver Toxicity Necrosis Classification (Sprague Dawley rats; in vivo): no
Liver Necrosis (Sprague Dawley rats; intraperitoneal, dose 20 mg/kg, 72 hours after treatment): no
Score (histopathology liver necrosis severity score) (Sprague Dawley rats; intraperitoneal, dose 20 mg/kg, 72 hours, 1 = not remarkable, 2 and higher increasing severity): 1
Liver Necrosis (Sprague Dawley rats; intraperitoneal, dose 80 mg/kg, 72 hours after treatment): no
Score (histopathology liver necrosis severity score) (Sprague Dawley rats; intraperitoneal, dose 80 mg/kg, 72 hours, 1 = not remarkable, 2 and higher increasing severity): 1
Aflatoxin B1 aldehyde reductase ([1]; 24 h): 0.6558 and 0.8284
Bax (alpha) [1, 2]: 1.114
Proliferating cell nuclear antigen gene [1, 2]: 0.9203
3-hydroxyisobutyrate dehydrogenase [1, 3]: 0.9143 and 0.9803
14-3-3 zeta [1, 3]: 1.282 and 1.371
60S ribosomal protein L6 [1, 3]: 0.8081 and 0.8097
ATPase inhibitor (rat mitochondrial IF1 protein) [1, 3]: 0.5186 and 0.4781
Alpha 1 - inhibitor III [1, 3]: 0.5075 and 0.4307
Alpha-2-macroglobulin [1, 3]: 0.5649 and 0.479
Bax (alpha) [1, 3]: 1.115
Beta-actin [1, 3]: 1.318 and 1.347
Calpactin I heavy chain [1, 3]: 1.093 and 1.232
Carbamyl phosphate synthetase I [1, 3]: 0.8997 and 0.8454
Carbonic anhydrase III [1, 3]: 2.069 and 2.604
Carbonyl reductase [1, 3]: 1.013 and 1.035
Cathepsin L, sequence 2 [1, 3]: 1.124
Cofilin [1, 3]: 1.075 and 0.9686
Cyclin G [1, 3]: 1.06 and 1.18
DNA polymerase beta [1, 3]: 0.6488 and 0.5275
Dynamin-1 (D100) [1, 3]: 0.9853 and 0.8394
Endogenous retroviral sequence, 5′ and 3′ LTR [1, 3]: 1.197 and 1.103
Enolase alpha [1, 3]: 0.7101 and 0.7241
Epidermal growth factor [1, 3]: 0.7579 and 0.6975
Equilbrative nitrobenzylthioinosine-sensitive nucleoside transporter [1, 3]: 0.6046 and 0.5693
Extracellular-signal-regulated kinase 1 [1, 3]: 1.377 and 1.805
Fas antigen [1, 3]: 1.2 and 1.204
Gadd45 [1, 3]: 1.142 and 1.49
Gadd153 [1, 3]: 1.087 and 1.085
Gamma-actin, cytoplasmic [1, 3]: 0.7836 and 0.7811
Glucose-regulated protein 78 [1, 3]: 0.8506 and 0.7386
Heme oxygenase [1, 3]: 1.498 and 1.908
Hepatic lipase [1, 3]: 0.5441 and 0.4993
ID-1 [1, 3]: 1.157 and 1.321
IgE binding protein [1, 3]: 1.098 and 1.166
IkB-a [1, 3]: 0.8328 and 0.7684
Insulin-like growth factor I [1, 3]: 0.8551 and 0.7944
Insulin-like growth factor binding protein 1 [1, 3]: 1.056 and 0.9665
Insulin-like growth factor binding protein 3 [1, 3]: 0.8807 and 0.8119
Integrin beta1 [1, 3]: 1.12
L-gulono-gamma-lactone oxidase [1, 3]: 1.301 and 1.543
Liver fatty acid binding protein [1, 3]: 0.6905 and 0.5494
MAP kinase kinase [1, 3]: 1.023 and 1.164
Macrophage inflammatory protein-2 alpha [1, 3]: 1.132 and 1.347
Matrin F/G [1, 3]: 1.071 and 0.9981
Matrix metalloproteinase-1 [1, 3]: 1.581 and 1.897
Melanoma-associated antigen ME491 [1, 3]: 0.9841
Monocyte chemotactic protein receptor (CCR2) [1, 3]: 1.3 and 1.499
Multidrug resistant protein-2 [1, 3]: 1.286 and 1.334
N-hydroxy-2-acetylaminofluorene sulfotransferase (ST1C1) [1, 3]: 0.5527 and 0.5091
Nucleoside diphosphate kinase beta isoform [1, 3]: 1.1
Organic anion transporter 3 [1, 3]: 1.058
Organic cation transporter 3 [1, 3]: 0.9117 and 0.8387
Ornithine decarboxylase [1, 3]: 1.479 and 1.694
PAR interacting protein [1, 3]: 0.9791 and 0.9269
Phase-1 RCT 252 [1, 3]: 0.7562
Phase-1 RCT-15 [1, 3]: 3.553 and 2.982
Phase-1 RCT-39 [1, 3]: 0.9896
Phase-1 RCT-49 [1, 3]: 0.869 and 0.8084
Phase-1 RCT-50 [1, 3]: 1.203
Phase-1 RCT-68 [1, 3]: 1.203
Phase-1 RCT-78 [1, 3]: 1.292
Phase-1 RCT-83 [1, 3]: 0.5669 and 0.5525
Phase-1 RCT-88 [1, 3]: 2.1
Phase-1 RCT-89 [1, 3]: 0.8262
Phase-1 RCT-92 [1, 3]: 2.107
Phase-1 RCT-102 [1, 3]: 1.096
Phase-1 RCT-137 [1, 3]: 0.4276 and 0.4239
Phase-1 RCT-144 [1, 3]: 0.8929
Phase-1 RCT-152 [1, 3]: 0.7359 and 0.7085
Phase-1 RCT-168 [1, 3]: 0.7781
Phase-1 RCT-181 [1, 3]: 1.504
Phase-1 RCT-182 [1, 3]: 0.6963 and 0.8836
Phase-1 RCT-189 [1, 3]: 0.7721 and 0.6053
Phase-1 RCT-191 [1, 3]: 0.6314 and 0.7152
Phase-1 RCT-192 [1, 3]: 0.9295
Phase-1 RCT-225 [1, 3]: 1
Phase-1 RCT-264 [1, 3]: 0.5562 and 0.6031
Phase-1 RCT-270 [1, 3]: 0.728
Phase-1 RCT-271 [1, 3]: 1.199
Phase-1 RCT-288 [1, 3]: 0.8205 and 0.8069
Phase-1 RCT-295 [1, 3]: 1.57
Proliferating cell nuclear antigen gene [1, 3]: 1.089
Ribosomal protein L13A [1, 3]: 1.024
Ribosomal protein S8 [1, 3]: 0.7171 and 0.6731
Ribosomal protein S17 [1, 3]: 0.7324 and 0.6158
Senescence marker protein-30 [1, 3]: 0.7313 and 0.841
Sodium/bile acid cotransporter [1, 3]: 0.6926 and 0.7429
Superoxide dismutase Mn [1, 3]: 1.092 and 1.114
Thymosin beta-10 [1, 3]: 0.7195 and 0.7559
Transthyretin [1, 3]: 0.4631 and 0.4873
Ubiquitin conjugating enzyme (RAD 6 homologue) [1, 3]: 0.7763 and 0.6535
Uncoupling protein 2 [1, 3]: 0.9638 and 0.9416
Zinc finger protein [1, 3]: 0.8961 and 0.8505
c-jun [1, 3]: 1.14 and 1.384
c-myc [1, 3]: 1.235 and 1.141
p53 [1, 3]: 1.067 and 1.196
{Ribosomal protein L6} [1, 3]: 1.368 and 1.181
Paraoxonase 1 ([1]; rat, in vivo): 0.4982 and 0.4752
